Data: patent US4026896A, “Aromatic amidocarboxylic acids and pharmaceutical compositions thereof” (Kissei Yakuhin Kogyo Kabushiki Kaisha (Kissei …, priority 1974, dated 1977)

How the values were obtained:
[1] = test system: homologous passive cutaneous anaphylaxis (PCA); test: Homologous passive cutaneous anaphylaxis (PCA) in rats, test compounds given orally; format: in vivo, Wistar male rats; conditions: rat, 200 mg/kg p.o., 2 hours prior to injection of antigen and Evans blue; for inhibition in vivo at 200 mg/kg: po, read-out: INHIBITION (%) of PCA (amount of dye leaked vs control group)
Method: "Homologous passive cutaneous anaphylaxis (PCA) in rats."
Wistar male rats weighing from 120 to 150 g were used in the present experiment. Reaginic antibody was obtained from rats immunized with 2,4-dinitrophenyl-coupled ascaris extract (DNP-As) mixed with Bordetella pertussis. Normal rats were sensitized passively with an intradermal injection of the diluted antiserum. After 48 hours of the sensitization, the mixture of antigen (DNP-As) and Evans blue was injected intravenously. The animals were sacrificed by a blow on the head 30 minutes after challenging with antigen. The area blued as a result of PCA was excised and the amount of dye leaked was measured photometrically after the extraction of same with acetone containing sodium carbonate.
The test compounds were suspended in 0.5% aqueous solution of sodium carboxymethylcellulose (CMC) and administered 200 mg/kg p.o. 2 hours prior to the injection of a mixture of antigen and Evans blue. […] The efficacy of the test compounds to inhibit the PCA was compared with the value (%) calculated using the following formula: [formula] A: Amount of dye leaked in the control group B: Amount of dye leaked in the group treated with test compound

[2] = test system: experimental anaphylaxis / antiallergic effect; conditions: oral, mammalia; known reference compounds; cited from earlier work
[3] = test system: release of chemical mediators from cells; conditions: caused by an antigen-antibody reaction; cited from earlier work

COc1ccc(C(C)=CC(=O)Nc2ccccc2CC(=O)O)cc1OC [2-(3',4'-dimethoxy-β-methylcinnamoylamino)phenylacetic]
inhibition in vivo at 200 mg/kg [1]: 37.3%

COc1ccc(C=CC(=O)Nc2ccccc2OCC(=O)O)cc1OC [2-(3',4'-dimethoxycinnamoylamino)phenoxyacetic acid]
inhibition in vivo at 200 mg/kg [1]: 42.6%

COc1ccc(C=CC(=O)Nc2ccccc2CC(=O)O)cc1OC [2-(3',4'-dimethoxycinnamoylamino)phenylacetic acid]
inhibition in vivo at 200 mg/kg [1]: 63.9%

COc1ccc(CCC(=O)Nc2ccccc2OCC(=O)O)cc1OC [2-(3',4'-dimethoxyhydrocinnamoylamino)phenoxyacetic acid]
inhibition in vivo at 200 mg/kg [1]: 25.9%

CCCOc1ccc(C=CC(=O)Nc2ccccc2OCC(=O)O)cc1OC [2-(3'-methoxy,4'-propoxycinnamoylamino)phenoxyacetic acid]
inhibition in vivo at 200 mg/kg [1]: 32.1%

O=C(O)Cc1ccccc1NC(=O)C=Cc1ccc(Cl)cc1 [2-(4'-chlorocinnamoylamino)phenylacetic acid]
inhibition in vivo at 200 mg/kg [1]: 53.3%

O=C(C=Cc1ccccc1)Nc1cccc(C(=O)O)c1 [3-(cinnamoylamino)benzoic acid, reference compound]
inhibition in vivo at 200 mg/kg [1]: 10.8%

O=C(O)Cc1cccc(NC(=O)C=Cc2ccccc2)c1 [3-(cinnamoylamino)phenylacetic acid]
inhibition in vivo at 200 mg/kg [1]: 39.8%

O=C(O)Cc1ccc(NC(=O)C=Cc2ccc(O)cc2)cc1 [4-(4'-hydroxycinnamoylamino)phenylacetic acid]
inhibition in vivo at 200 mg/kg [1]: 34.3%

COc1ccc(C=CC(=O)Nc2ccc(CC(=O)O)cc2)cc1 [4-(4'-methoxy-β-cinnamoylamino)phenylacetic acid]
INHIBITION (%) of PCA (amount of dye leaked vs control group) [1]: 85.3%

O=C(C=Cc1ccccc1)Nc1ccc(C(=O)O)cc1 [4-(cinnamoylamino)benzoic acid, reference compound]
inhibition in vivo at 200 mg/kg [1]: 7.5%

O=C(C=Cc1ccccc1)Nc1ccccc1C(=O)O [N-cinnamoyl-anthranilic acid, reference compound]
inhibition in vivo at 200 mg/kg [1]: 18.1%

OCC(O)COc1ccc(Cl)cc1 (stereo not shown) [chlorphenesin, reference compound]
inhibition in vivo at 200 mg/kg [1]: 39.7%

O=C(O)c1cc(=O)c2c(OCC(O)COc3cccc4oc(C(=O)O)cc(=O)c34)cccc2o1 [disodium chromoglycate]
antiallergic effect when administered orally [2]: not at all expected when this compound is administered orally
inhibiting release of chemical mediators from cells [3]: effective for inhibiting release of chemical mediators from cells

COc1ccc(C=CC(=O)Nc2ccccc2CCC(=O)O)cc1OC [β-[2-(3',4'-dimethoxycinnamoylamino)]phenylpropionic]
inhibition in vivo at 200 mg/kg [1]: 27%

COc1ccc(C=CC(=O)Nc2cccc(CCC(=O)O)c2)cc1OC [β-[3-(3',4'-dimethoxycinnamoylamino)]phenylpropionic]
inhibition in vivo at 200 mg/kg [1]: 47.2%

Cc1ccc(C=CC(=O)Nc2ccc(OCC(=O)O)cc2)cc1 [β-[4-(4'-methylcinnamoylamino)]phenoxyacetic acid]
INHIBITION (%) of PCA (amount of dye leaked vs control group) [1]: 75.9%

cinnamoylaminobenzoic acid [unsubstituted cinnamoylaminobenzoic acid]
antiallergic effect when administered orally [2]: only a slightly weak antiallergic effect
